In the supplement of paper PMC4862054:
Each block holds one compound with its values, some of them ahead of it.

How the values were obtained:
Settings in all cases: 72 h
CAL-148 [1] = test system: CAL-148
Method: (§1)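 Drug sensitivity and resistance testing (DSRT) of breast cancer cell lines in 384-well plates, 5 concentrations in 10-fold dilutions over a compound-specific 10,000-fold range. After 72 h, cytotoxicity was read by CellTox Green fluorescence and viability by CellTiter-Glo luminescence (multiplexed), normalised to DMSO and benzethonium chloride controls. EC50 is the inflection point of the fitted dose-response curve (bottom asymptote free, so it can be relative for partial curves) and is censored at the highest tested concentration. Rows with DSS 0 (no meaningful response) were excluded.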

SK-BR-3 [2] = test system: SK-BR-3
Outline: (§2)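 For viability and cell death testing, 384-well plates carried compound at 5 concentrations in 10-fold steps over a compound-specific 10,000-fold range, and breast cancer cell lines were seeded in 20 µl suspension. After 72 h incubation, cell death was read by CellTox Green fluorescence (485/520 nm) before viability was read by CellTiter-Glo luminescence. EC50 was fitted from the dose-response curves and censored at the top concentration. Normalisation on each plate was to 0.1 % DMSO and a positive kill control.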

HCC1599 [3] = test system: HCC1599
Outline: as §2

Hs578T [4] = test system: Hs578T
Outline: as §2

MDA-MB-453 [5] = test system: MDA-MB-453
Outline: as §2

CAL-85-1 [6] = test system: CAL-85-1
Outline: as §2

CAL-120 [7] = test system: CAL-120
Outline: as §2

MFM-223 [8] = test system: MFM-223
Outline: as §2

HCC1937 [9] = test system: HCC1937
Outline: as §2

MCF-10A [10] = test system: MCF-10A
Outline: as §2

MDA-MB-231 [11] = test system: MDA-MB-231
Outline: as §2

HDQ-P1 [12] = test system: HDQ-P1
Outline: as §2

CAL-51 [13] = test system: CAL-51
Outline: (§3)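 For viability, cells received 2.5 µl CellTiter-Blue for 2 h at 37 °C and fluorescence was read at 560/590 nm. Before this, breast cancer cell lines in 20 µl suspension had been incubated for 72 h on 384-well plates pre-loaded with compound dissolved in 5 µl medium. EC50 was obtained from a percent-inhibition dose-response fit censored at the highest concentration, after normalisation of each plate to vehicle and a positive kill control; rows with a zero drug sensitivity score were discarded.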

HDQ-P1 [14] = test system: HDQ-P1; remark: listed apart in the source
Outline: as §3

MDA-MB-453 [15] = test system: MDA-MB-453; remark: listed apart in the source
Outline: as §3

SK-BR-3 [16] = test system: SK-BR-3; remark: listed apart in the source
Outline: as §3

MDA-MB-231 [17] = test system: MDA-MB-231; remark: listed apart in the source
Outline: as §3

BT-474 [18] = test system: BT-474
Outline: as §3

BT-549 [19] = test system: BT-549
Outline: as §3

CAL-120 [20] = test system: CAL-120; remark: listed apart in the source
Outline: as §3

HCC1599 [21] = test system: HCC1599; remark: listed apart in the source
Outline: as §3

Hs578T [22] = test system: Hs578T; remark: listed apart in the source
Outline: as §3

MFM-223 [23] = test system: MFM-223; remark: listed apart in the source
Outline: as §3

MCF-10A [24] = test system: MCF-10A; remark: listed apart in the source
Method: as §1

MDA-MB-231 [25] = test system: MDA-MB-231; remark: listed apart in the source
Method: as §1

Hs578T [26] = test system: Hs578T; remark: listed apart in the source
Method: as §1

CAL-148 [27] = test system: CAL-148; remark: listed apart in the source
Outline: as §2

CAL-148 [28] = test system: CAL-148; remark: listed apart in the source
Outline: as §3

HCC1937 [29] = test system: HCC1937; remark: listed apart in the source
Outline: as §3

CAL-51 [30] = test system: CAL-51; remark: listed apart in the source
Method: as §1

MDA-MB-436 [31] = test system: MDA-MB-436
Method: as §1

HCC1143 [32] = test system: HCC1143
Outline: as §2

BT-474 [33] = test system: BT-474; remark: listed apart in the source
Outline: as §2

BT-549 [34] = test system: BT-549; remark: listed apart in the source
Outline: as §2

CAL-51 [35] = test system: CAL-51; remark: listed apart in the source
Outline: as §2

DU-4475 [36] = test system: DU-4475
Outline: as §2

MDA-MB-436 [37] = test system: MDA-MB-436; remark: listed apart in the source
Outline: as §2

MDA-MB-468 [38] = test system: MDA-MB-468
Outline: as §2

DU-4475 [39] = test system: DU-4475; remark: listed apart in the source
Outline: as §3

CAL-85-1 [40] = test system: CAL-85-1; remark: listed apart in the source
Outline: as §3

HCC1143 [41] = test system: HCC1143; remark: listed apart in the source
Outline: as §3

MDA-MB-436 [42] = test system: MDA-MB-436; remark: listed apart in the source
Outline: as §3

MDA-MB-468 [43] = test system: MDA-MB-468; remark: listed apart in the source
Outline: as §3

SMILES: Cc1cnc(NC(=O)Nc2cc(Br)c(C)cc2OC[C@@H]2CNCCO2)cn1 [Rabusertib]
EC50, CellTox Green (CAL-148 [1]): > 1000 nM
EC50, CellTiter-Glo (SK-BR-3 [2]): 918 nM
EC50, CellTiter-Glo (HCC1599 [3]): 691 nM
EC50, CellTiter-Glo (Hs578T [4]): 354 nM
EC50, CellTiter-Glo (MDA-MB-453 [5]): 219 nM
EC50, CellTiter-Glo (CAL-85-1 [6]): > 1000 nM

SMILES: CNC(=O)c1cc(Oc2ccc(NC(=O)Nc3cc(C(C)(C)C)nn3-c3ccc4ncccc4c3)c(F)c2)ccn1 [Rebastinib]
EC50, CellTiter-Glo (CAL-120 [7]): 155 nM
EC50, CellTiter-Glo (MFM-223 [8]): 31.3 nM

SMILES: C1CN1c1nc(N2CC2)nc(N2CC2)n1 [Triethylenemelamine]
EC50, CellTiter-Blue viability (CAL-148 [28]): 3220 nM
EC50, CellTiter-Blue viability (MDA-MB-453 [15]): 9220 nM
EC50, CellTiter-Blue viability (MDA-MB-231 [17]): 698 nM
EC50, CellTiter-Blue viability (BT-549 [19]): 9400 nM

SMILES: Oc1ncc(N(CCCl)CCCl)c(O)n1 [Uracil mustard]
EC50, CellTiter-Blue viability (HCC1937 [29]): 962 nM

Further lines, with some results ahead:

EC50, CellTiter-Glo (HCC1937 [9]): > 10000 nM
EC50, CellTiter-Glo (MDA-MB-231 [11]): 8500 nM
EC50, CellTiter-Glo (MDA-MB-453 [5]): 5050 nM
EC50, CellTiter-Blue viability (MDA-MB-453 [15]): 2320 nM
EC50, CellTiter-Blue viability (SK-BR-3 [16]): 4270 nM
EC50, CellTiter-Blue viability (MDA-MB-231 [17]): 6790 nM
EC50, CellTiter-Blue viability (BT-474 [18]): 2500 nM
EC50, CellTiter-Blue viability (BT-549 [19]): 7350 nM
EC50, CellTiter-Blue viability (HCC1599 [21]): 4650 nM
SMILES: COc1cc2nccc(Oc3ccc(NC(=O)Nc4cc(C)on4)c(Cl)c3)c2cc1OC [Tivozanib]
EC50, CellTiter-Glo (MCF-10A [10]): 8730 nM
EC50, CellTiter-Glo (HDQ-P1 [12]): 3820 nM
EC50, CellTiter-Glo (MFM-223 [8]): 1820 nM
EC50, CellTiter-Blue viability (CAL-51 [13]): 7800 nM
EC50, CellTiter-Blue viability (HDQ-P1 [14]): 774 nM
EC50, CellTiter-Blue viability (CAL-120 [20]): 4610 nM
EC50, CellTiter-Blue viability (Hs578T [22]): 4590 nM
EC50, CellTiter-Blue viability (MFM-223 [23]): 344 nM

EC50, CellTiter-Glo (SK-BR-3 [2]): 2210 nM
EC50, CellTiter-Glo (MDA-MB-231 [11]): 2600 nM
EC50, CellTiter-Glo (HCC1599 [3]): 5530 nM
EC50, CellTiter-Glo (MDA-MB-453 [5]): 3230 nM
EC50, CellTiter-Blue viability (SK-BR-3 [16]): 731 nM
EC50, CellTiter-Blue viability (HCC1599 [21]): 133 nM
SMILES: CC1=C(/C=C/C(C)=C/C=C/C(C)=C/C(=O)O)C(C)(C)CCC1 [Tretinoin]
EC50, CellTox Green (MCF-10A [24]): 676 nM
EC50, CellTox Green (MDA-MB-231 [25]): 3200 nM
EC50, CellTox Green (Hs578T [26]): 130 nM
EC50, CellTiter-Glo (CAL-148 [27]): 354 nM
EC50, CellTiter-Glo (MCF-10A [10]): 1990 nM
EC50, CellTiter-Glo (Hs578T [4]): 6610 nM
EC50, CellTiter-Blue viability (CAL-148 [28]): 43.5 nM

EC50, CellTiter-Glo (HCC1937 [9]): 629 nM
EC50, CellTiter-Glo (SK-BR-3 [2]): 343 nM
EC50, CellTiter-Glo (HCC1143 [32]): 697 nM
EC50, CellTiter-Glo (MDA-MB-231 [11]): 4480 nM
EC50, CellTiter-Glo (BT-474 [33]): 2640 nM
EC50, CellTiter-Glo (BT-549 [34]): 794 nM
EC50, CellTiter-Glo (HCC1599 [3]): 3220 nM
EC50, CellTiter-Glo (MDA-MB-453 [5]): 3050 nM
EC50, CellTiter-Glo (MDA-MB-436 [37]): 311 nM
EC50, CellTiter-Glo (MDA-MB-468 [38]): 290 nM
EC50, CellTiter-Blue viability (MDA-MB-453 [15]): 830 nM
EC50, CellTiter-Blue viability (HCC1937 [29]): 211 nM
EC50, CellTiter-Blue viability (SK-BR-3 [16]): 170 nM
EC50, CellTiter-Blue viability (HCC1143 [41]): 525 nM
EC50, CellTiter-Blue viability (MDA-MB-231 [17]): 721 nM
EC50, CellTiter-Blue viability (BT-474 [18]): 916 nM
EC50, CellTiter-Blue viability (BT-549 [19]): 1090 nM
EC50, CellTiter-Blue viability (HCC1599 [21]): 2320 nM
EC50, CellTiter-Blue viability (MDA-MB-436 [42]): 1520 nM
EC50, CellTiter-Blue viability (MDA-MB-468 [43]): 369 nM
SMILES: CCCCC(=O)OCC(=O)[C@]1(O)Cc2c(O)c3c(c(O)c2[C@@H](O[C@H]2C[C@H](NC(=O)C(F)(F)F)[C@H](O)[C@H](C)O2)C1)C(=O)c1c(OC)cccc1C3=O [Valrubicin]
EC50, CellTox Green (CAL-148 [1]): 46.5 nM
EC50, CellTox Green (CAL-51 [30]): 26.1 nM
EC50, CellTox Green (MDA-MB-436 [31]): > 5000 nM
EC50, CellTiter-Glo (CAL-148 [27]): 322 nM
EC50, CellTiter-Glo (MCF-10A [10]): 746 nM
EC50, CellTiter-Glo (CAL-51 [35]): 162 nM
EC50, CellTiter-Glo (HDQ-P1 [12]): 661 nM
EC50, CellTiter-Glo (Hs578T [4]): 944 nM
EC50, CellTiter-Glo (DU-4475 [36]): 462 nM
EC50, CellTiter-Glo (MFM-223 [8]): 4320 nM
EC50, CellTiter-Glo (CAL-85-1 [6]): 1340 nM
EC50, CellTiter-Blue viability (CAL-148 [28]): 123 nM
EC50, CellTiter-Blue viability (CAL-51 [13]): 148 nM
EC50, CellTiter-Blue viability (HDQ-P1 [14]): 236 nM
EC50, CellTiter-Blue viability (DU-4475 [39]): 65.5 nM
EC50, CellTiter-Blue viability (CAL-85-1 [40]): 1170 nM
EC50, CellTiter-Blue viability (CAL-120 [20]): 281 nM
EC50, CellTiter-Blue viability (Hs578T [22]): 1230 nM
EC50, CellTiter-Blue viability (MFM-223 [23]): 2810 nM
